Measured values as given in patent publication US5635537A, “8-substituted-2-aminotetralins” (Astra Aktiebolag, priority 1989, dated 1997).
Counter-ions that a name gives are not always drawn.

Biological target: T1, 5HT1A (Rattus norvegicus, UniProt P19327)
T1 construct: Cerebral cortex + hippocampus from each rat was dissected and homogenized; from tissue; host or cells: rat cerebral cortex + hippocampus homogenate
T1 sequence (P19327 1-422): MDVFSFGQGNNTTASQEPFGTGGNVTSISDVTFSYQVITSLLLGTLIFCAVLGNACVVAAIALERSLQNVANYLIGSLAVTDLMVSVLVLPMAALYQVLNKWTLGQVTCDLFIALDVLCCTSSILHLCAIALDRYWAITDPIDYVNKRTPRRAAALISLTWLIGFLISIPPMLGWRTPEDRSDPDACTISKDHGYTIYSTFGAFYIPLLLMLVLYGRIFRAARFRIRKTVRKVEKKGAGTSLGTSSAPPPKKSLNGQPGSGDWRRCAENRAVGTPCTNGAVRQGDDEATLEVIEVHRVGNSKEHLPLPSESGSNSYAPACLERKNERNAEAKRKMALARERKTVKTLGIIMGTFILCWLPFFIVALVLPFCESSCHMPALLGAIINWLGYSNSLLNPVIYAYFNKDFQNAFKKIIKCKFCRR
Experiment: 5HT1A binding assay (receptor binding, 3H-8-OH-DPAT, rat cerebral cortex + hippocampus)
Conditions: 3H-8-OH-DPAT (0.25 to 8 nM), rat cerebral cortex + hippocampus homogenate, 37° C., 10 min, pH 7.5
Protocol: Another observation is that some of these compounds have a particularly good oral bioavailability. In order to evaluate the affinity for this subgroup of/the 5-HT-receptors, the effects on various receptors in rat brain were measured in vitro using receptor assays (Ki nM).
5HT1A binding assay. Cerebral cortex + hippocampus from each rat was dissected and homogenized in 15 ml ice-cold 50 mM Tris-HCl buffer 4.0 mM CaCl2 and 5.7 mM ascorbic acid, pH 7.5 with an Ultra-Turrax (Janke & Kunkel, Staufen, FRG) for ten s. After centrifugation for 12.5 min at 17,000 rpm (39,800×g in a Beckman centrifuge with a chilled JA-17 rotor (Beckman, Palo Alto, Calif., USA), the pellets were resuspended in the same buffer and homogenization and centrifugation repeated. To each pellet 5 ml ice-cold 0.32M sucrose were added and homogenized for 5 sec. These samples were kept frozen at -70° C. When used they were diluted with the buffer to 8 mg tissue/ml and homogenized for 10 sec.
The tissue homogenates were incubated for ten min at 37° C. and then supplied with 10 μM pargyline followed by reincubation for 10 min.
The binding assay followed that described by Peroutka, J. Neurochem. 47, 529-540, (1986). The incubation mixture (2 ml) contained ^3 H-8-OH-DPAT (0.25 to 8 nM), 5 mg/ml tissue homogenate in 50 mM Tris-HCl buffer containing 4.0 mM CaCl2 and 5.7 mM ascorbic acid, pH 7.5. Six different concentrations of ^3 H-8-OH-DPAT were analyzed. Binding experiments were started by the addition of tissue homogenate and followed by incubation at 37° C. for ten min. The incubation mixtures were filtered through Whatman GF/B glass filters with a Brandel Cell Harvester (Gaithersburg, Md., USA). The filters were washed twice with 5 ml ice-cold 50 mM Tria-HCl buffer, pH 7.5, and counted with 5 ml Ready-solv HP (Beckman) in a Beckman LS 3801 scintillation counter. Non-specific binding was measured by the addition of 10 μM 5-HT to the reaction mixture. The binding data was processed by non-linear least squares computer/analysis (Munson and Rodbard, Anal. Biochem. 107, 220-239, (1980).

In order of falling Ki:
1. CCCN(CCC)C1CCc2cccc(C(C)=O)c2C1 (single isomer, unassigned; (+)) [Example 6, (+)-8-Acetyl-2-(dipropylamino)tetralin hydrochloride]  1.7 nM
2. CCCN(CCC)C1CCc2cccc(-c3ccco3)c2C1 (racemic) [Example 11, (±)-8-(2-Furanyl)-2-(dipropylamino)tetralin oxalate]  1.5 nM
3. CCCN(CCC)C1CCc2cccc(C(C)=O)c2C1 (racemic) [Example 2, (±)-8-Acetyl-2-(dipropylamino)tetralin hydrochloride]  0.9 nM
